Results from ChEMBL document CHEMBL1201862, “PubChem BioAssay data set” (2004).
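Tested at 5 concentrations; 48 h exposure; 96-well plates; endpoints linearly interpolated, else capped at highest concentration. Abbreviation: GI50, concentration required for 50% inhibition of growth.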 Activity calls are given as the source filed them. Cut-off read from the data, not from the text of the source: active = GI50 up to about 1.1 µM and inactive = higher.

Key:
Test in all cases: NCI tumour cell line growth inhibition, 48 h
786-0 = tested on: 786-0
A498 = tested on: A498
A549 = tested on: A549
ACHN = tested on: ACHN
BT-549 = tested on: BT-549
CAKI-1 = tested on: CAKI-1
CCRF-CEM = tested on: CCRF-CEM
COLO 205 = tested on: COLO 205
DU-145 = tested on: DU-145
EKVX = tested on: EKVX
HCC 2998 = tested on: HCC 2998
HCT-116 = tested on: HCT-116
HCT-15 = tested on: HCT-15
HL-60 = tested on: HL-60
HOP-62 = tested on: HOP-62
HOP-92 = tested on: HOP-92
HT-29 = tested on: HT-29
Hs-578T = tested on: Hs-578T
IGROV-1 = tested on: IGROV-1
K562 = tested on: K562
KM12 = tested on: KM12
LOX IMVI = tested on: LOX IMVI
M14 = tested on: M14
MCF7 = tested on: MCF7
MDA-MB-231 = tested on: MDA-MB-231
MDA-MB-435 = tested on: MDA-MB-435
MDA-N = tested on: MDA-N
MOLT-4 = tested on: MOLT-4
Malme-3M = tested on: Malme-3M
NCI-H226 = tested on: NCI-H226
NCI-H23 = tested on: NCI-H23
NCI-H460 = tested on: NCI-H460
NCI-H522 = tested on: NCI-H522
NCI/ADR-RES = tested on: NCI/ADR-RES
OVCAR-3 = tested on: OVCAR-3
OVCAR-4 = tested on: OVCAR-4
OVCAR-5 = tested on: OVCAR-5
OVCAR-8 = tested on: OVCAR-8
PC-3 = tested on: PC-3
RPMI-8226 = tested on: RPMI-8226
RXF 393 = tested on: RXF 393
SF-268 = tested on: SF-268
SF-295 = tested on: SF-295
SF-539 = tested on: SF-539
SK-MEL-28 = tested on: SK-MEL-28
SK-MEL-2 = tested on: SK-MEL-2
SK-MEL-5 = tested on: SK-MEL-5
SK-OV-3 = tested on: SK-OV-3
SN12C = tested on: SN12C
SNB-19 = tested on: SNB-19
SNB-75 = tested on: SNB-75
SR = tested on: SR
SW-620 = tested on: SW-620
T47D = tested on: T47D
TK-10 = tested on: TK-10
U-251 = tested on: U-251
UACC-257 = tested on: UACC-257
UACC-62 = tested on: UACC-62
UO-31 = tested on: UO-31
DMS-114 = tested on: DMS-114
KM-20L2 = tested on: KM-20L2
LXFL 529 = tested on: LXFL 529
M19-MEL = tested on: M19-MEL
SNB-78 = tested on: SNB-78
XF498 = tested on: XF498

Measured: GI50

O=C(O)c1ccc(C(=O)Nc2cccc3ccccc23)c(C(=O)O)c1
> 100 µM: HCT-15
inactive: 786-0 > 100 µM | A498 > 100 µM | A549 > 100 µM | ACHN > 100 µM | BT-549 > 100 µM | CAKI-1 > 100 µM | CCRF-CEM > 100 µM | COLO 205 > 100 µM | DU-145 > 100 µM | EKVX > 100 µM | HCC 2998 > 100 µM | HCT-116 > 100 µM | HL-60 > 100 µM | HOP-62 > 100 µM | HOP-92 > 100 µM | HT-29 > 100 µM | Hs-578T > 100 µM | IGROV-1 > 100 µM | K562 > 100 µM | KM12 > 100 µM | LOX IMVI > 100 µM | M14 > 100 µM | MCF7 > 100 µM | MDA-MB-231 > 100 µM | MDA-MB-435 > 100 µM | MDA-N > 100 µM | MOLT-4 > 100 µM | Malme-3M > 100 µM | NCI-H226 > 100 µM | NCI-H23 > 100 µM | NCI-H460 > 100 µM | NCI-H522 > 100 µM | NCI/ADR-RES > 100 µM | OVCAR-3 > 100 µM | OVCAR-4 > 100 µM | OVCAR-5 > 100 µM | OVCAR-8 > 100 µM | PC-3 > 100 µM | RPMI-8226 > 100 µM | RXF 393 > 100 µM | SF-268 > 100 µM | SF-295 > 100 µM | SF-539 > 100 µM | SK-MEL-28 > 100 µM | SK-MEL-2 > 100 µM | SK-MEL-5 > 100 µM | SK-OV-3 > 100 µM | SN12C > 100 µM | SNB-19 > 100 µM | SNB-75 > 100 µM | SR > 100 µM | SW-620 > 100 µM | T47D > 100 µM | TK-10 > 100 µM | U-251 > 100 µM | UACC-257 > 100 µM | UACC-62 > 100 µM | UO-31 > 100 µM

CC(=O)c1ccc(NC(=O)/C(CC(=O)c2sc(-c3cccnc3)nc2C)=N/NC(N)=O)cc1
42.3 µM: HCT-15
inactive: 786-0 27.9 µM | A498 31.5 µM | A549 22.5 µM | ACHN 22.4 µM | CAKI-1 23.2 µM | CCRF-CEM 21.6 µM | COLO 205 18.2 µM | DMS-114 > 100 µM | EKVX 2.71 µM | HCC 2998 > 10 µM | HCT-116 22.6 µM | HL-60 29.5 µM | HOP-62 > 10 µM | HT-29 > 100 µM | IGROV-1 > 100 µM | K562 > 100 µM | KM-20L2 > 100 µM | KM12 > 100 µM | LOX IMVI > 100 µM | LXFL 529 41.4 µM | M14 > 100 µM | M19-MEL > 100 µM | MOLT-4 19.3 µM | Malme-3M > 100 µM | NCI-H226 25.9 µM | NCI-H23 > 10 µM | NCI-H460 27.1 µM | NCI-H522 98.4 µM | OVCAR-3 > 100 µM | OVCAR-4 > 100 µM | OVCAR-5 45.1 µM | OVCAR-8 56.5 µM | RPMI-8226 23.5 µM | SF-268 38.7 µM | SF-295 41.7 µM | SF-539 > 10 µM | SK-MEL-28 > 100 µM | SK-MEL-2 > 100 µM | SK-MEL-5 > 100 µM | SK-OV-3 > 100 µM | SN12C 51.6 µM | SNB-19 53.6 µM | SNB-78 > 100 µM | SR 33.1 µM | SW-620 > 100 µM | TK-10 > 10 µM | U-251 68.1 µM | UACC-257 > 10 µM | UACC-62 52.2 µM | UO-31 50.4 µM | XF498 > 100 µM
